Assay results taken from PubChem BioAssay (NCI).
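Grown in 96-well plates, cells were treated for 48 hours with each compound at five concentrations. Insufficient inhibition: endpoint recorded as highest concentration tested. GI50: concentration for 50% inhibition of growth. TGI: total growth inhibition.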

Experiments:
Assay in all cases: NCI tumour cell line growth inhibition, 48 h
SK-MEL-2 melanoma = test system: SK-MEL-2 melanoma
NCI-H226 lung = test system: NCI-H226 lung
PC-3 prostate = test system: PC-3 prostate
786-0 renal = test system: 786-0 renal
MCF7 breast = test system: MCF7 breast
SW-620 colon = test system: SW-620 colon
OVCAR-5 ovarian = test system: OVCAR-5 ovarian
UACC-62 melanoma = test system: UACC-62 melanoma
HCT-116 colon = test system: HCT-116 colon
MALME-3M melanoma = test system: MALME-3M melanoma
SF-268 CNS = test system: SF-268 CNS
SR leukemia = test system: SR leukemia
HOP-62 NSCLC = test system: HOP-62 NSCLC
MDA-MB-435 = test system: MDA-MB-435
LOX IMVI melanoma = test system: LOX IMVI melanoma
MOLT-4 leukemia = test system: MOLT-4 leukemia
M14 melanoma = test system: M14 melanoma
SK-MEL-5 melanoma = test system: SK-MEL-5 melanoma
SN12C renal = test system: SN12C renal
HS 578T breast = test system: HS 578T breast
ACHN renal = test system: ACHN renal
COLO 205 colon = test system: COLO 205 colon
CCRF-CEM leukemia = test system: CCRF-CEM leukemia
CAKI-1 renal = test system: CAKI-1 renal
OVCAR-4 ovarian = test system: OVCAR-4 ovarian
IGROV1 ovarian = test system: IGROV1 ovarian
HT29 colon = test system: HT29 colon
OVCAR-3 ovarian = test system: OVCAR-3 ovarian
K-562 leukemia = test system: K-562 leukemia
NCI-H522 lung = test system: NCI-H522 lung
NCI-H23 lung = test system: NCI-H23 lung
MDA-MB-231 breast = test system: MDA-MB-231 breast
SF-295 CNS = test system: SF-295 CNS
RXF 393 renal = test system: RXF 393 renal
U251 CNS = test system: U251 CNS
DU-145 prostate = test system: DU-145 prostate
SNB-75 CNS = test system: SNB-75 CNS
UACC-257 melanoma = test system: UACC-257 melanoma
NCI-H460 lung = test system: NCI-H460 lung
BT-549 breast = test system: BT-549 breast
HCC-2998 colon = test system: HCC-2998 colon
TK-10 renal = test system: TK-10 renal
UO-31 renal = test system: UO-31 renal
HL-60(TB) leukemia = test system: HL-60(TB) leukemia
RPMI-8226 leukemia = test system: RPMI-8226 leukemia
SNB-19 CNS = test system: SNB-19 CNS
SK-MEL-28 melanoma = test system: SK-MEL-28 melanoma
HCT-15 colon = test system: HCT-15 colon
KM12 colon = test system: KM12 colon
OVCAR-8 ovarian = test system: OVCAR-8 ovarian
A549 NSCLC = test system: A549 NSCLC
SF-539 CNS = test system: SF-539 CNS
SK-OV-3 ovarian = test system: SK-OV-3 ovarian
A498 renal = test system: A498 renal
HOP-92 NSCLC = test system: HOP-92 NSCLC
NCI/ADR-RES ovarian = test system: NCI/ADR-RES ovarian

## O=C(C[P+](c1ccccc1)(c1ccccc1)c1ccccc1)C[P+](c1ccccc1)(c1ccccc1)c1ccccc1
SK-MEL-2 melanoma
  GI50: 341 nM
  TGI: 1040 nM
NCI-H226 lung
  GI50: 197 nM
  TGI: 612 nM
PC-3 prostate
  GI50: 938 nM
  TGI: 2510 nM
786-0 renal
  GI50: 496 nM
  TGI: 1160 nM
MCF7 breast
  GI50: 332 nM
  TGI: 1600 nM
SW-620 colon
  GI50: 242 nM
  TGI: 816 nM
OVCAR-5 ovarian
  GI50: 263 nM
  TGI: 832 nM
UACC-62 melanoma
  GI50: 256 nM
  TGI: 865 nM
HCT-116 colon
  GI50: 203 nM
  TGI: 547 nM
MALME-3M melanoma
  GI50: 335 nM
  TGI: 1480 nM
SF-268 CNS
  GI50: 591 nM
  TGI: 1950 nM
SR leukemia
  GI50: 310 nM
  TGI: 3890 nM
HOP-62 NSCLC
  GI50: 1460 nM
  TGI: 2840 nM
MDA-MB-435
  GI50: 233 nM
  TGI: 666 nM
LOX IMVI melanoma
  GI50: 235 nM
  TGI: 637 nM
MOLT-4 leukemia
  GI50: 292 nM
  TGI: 4080 nM
M14 melanoma
  GI50: 387 nM
  TGI: 1460 nM
SK-MEL-5 melanoma
  GI50: 625 nM
  TGI: 1800 nM
SN12C renal
  GI50: 682 nM
  TGI: 2140 nM
HS 578T breast
  GI50: 581 nM
  TGI: 4500 nM
ACHN renal
  GI50: 144 nM
  TGI: 393 nM
COLO 205 colon
  GI50: 398 nM
  TGI: 1510 nM
CCRF-CEM leukemia
  GI50: 229 nM
  TGI: 1050 nM
CAKI-1 renal
  GI50: 161 nM
  TGI: 357 nM
OVCAR-4 ovarian
  GI50: 135 nM
  TGI: 269 nM
IGROV1 ovarian
  GI50: 774 nM
  TGI: 2560 nM
HT29 colon
  GI50: 285 nM
  TGI: 734 nM
OVCAR-3 ovarian
  GI50: 296 nM
  TGI: 807 nM
K-562 leukemia
  GI50: 306 nM
  TGI: 7490 nM
NCI-H522 lung
  GI50: 141 nM
  TGI: 325 nM
NCI-H23 lung
  GI50: 253 nM
  TGI: 888 nM
MDA-MB-231 breast
  GI50: 320 nM
  TGI: 1400 nM
SF-295 CNS
  GI50: 1460 nM
  TGI: 2980 nM
RXF 393 renal
  GI50: 200 nM
  TGI: 605 nM
U251 CNS
  GI50: 828 nM
  TGI: 2230 nM
DU-145 prostate
  GI50: 327 nM
  TGI: 1300 nM
SNB-75 CNS
  GI50: 254 nM
  TGI: 1440 nM
UACC-257 melanoma
  GI50: 416 nM
  TGI: 1280 nM
NCI-H460 lung
  GI50: 546 nM
  TGI: 2300 nM
BT-549 breast
  GI50: 363 nM
  TGI: 1240 nM
HCC-2998 colon
  GI50: 784 nM
  TGI: 2170 nM
TK-10 renal
  GI50: 326 nM
  TGI: 1090 nM
UO-31 renal
  GI50: 218 nM
  TGI: 855 nM
HL-60(TB) leukemia
  GI50: 256 nM
  TGI: 2570 nM
RPMI-8226 leukemia
  GI50: 271 nM
  TGI: 1810 nM
SNB-19 CNS
  GI50: 1310 nM
  TGI: 2780 nM
SK-MEL-28 melanoma
  GI50: 332 nM
  TGI: 1290 nM
HCT-15 colon
  GI50: 241 nM
  TGI: 1600 nM
KM12 colon
  GI50: 1130 nM
  TGI: 2630 nM
OVCAR-8 ovarian
  GI50: 318 nM
  TGI: 2310 nM
A549 NSCLC
  GI50: 810 nM
  TGI: 3040 nM
SF-539 CNS
  GI50: 286 nM
  TGI: 1130 nM
SK-OV-3 ovarian
  GI50: 1490 nM
  TGI: 3170 nM
A498 renal
  GI50: 223 nM
  TGI: 1020 nM
HOP-92 NSCLC
  GI50: 69.6 nM
  TGI: 294 nM
NCI/ADR-RES ovarian
  GI50: 383 nM
  TGI: 11000 nM
